Earlier results, collected in patent publication US20230364242A1, “WATER-SOLUBLE COMPLEX CONTAINING BETA BLOCKER AND LECITHIN” (NISSAN CHEMICAL CORPORATION, priority 2020, published 2023).

Details: literature reports

Q: For `CC(C)NCC(O)COc1cccc2ccccc12` (stereo not shown) [propranolol], which photolysis is on record?
A: decomposition particularly proceeds in an aqueous solution
